Test results reported in patent US4748161A, “Triterpenyl esters of organic acids and hypolipidemic agents composed of them” (Amano Pharmaceutical Co., Ltd., priority 1984, dated 1988).

Tested on: serum lipids and serum lipid hydroperoxide
Test: Pharmacological test method A for anti-hyperlipidemic activity (serum lipids, 2 weeks feeding)
Assay type: in vivo, male Wistar strain rats
Conditions: for AI [(TC - HDL-C)/(HDL-C)] / HDL-C in serum / LPO in serum / PL in serum / TC in serum / TG in serum: 1% in hyperlipidemic diet, 2 weeks; for AI % of diff. / AI Diff. / HDL-C % of diff. / HDL-C Diff. / LPO % of diff. / LPO Diff. / PL % of diff. / PL Diff. / TC % of diff. / TC Diff. / TG % of diff. / TG Diff.: versus control group
Description: Male Wistar strain rats (100±lg, each 10 rats were formed into a group) were used as test animals. Diet for the control group was prepared by thorough mixing of 20% casein, 62.5% glucose, 10% hydrogenated coconut oil, 2% agar powder, 4% vitamin-containing salt mixture, 1% cholesterol, and 0.5% cholic acid (this composition is described by Fukushima et al, in "Yakugaku Zassi", 89, No. 6, pp. 857-862 (1962)). Diet for the test groups was prepared by good mixing of 1% each of cycloartenol, 24-methylenecycloartanol, and cyclobranol with the control group's diet. Each rat was kept in a cage at a constant temperature of 23±1° C. and a constant R.H. of 55±5% for 2 weeks, during which 10 g/day of the prescribed was given. Finally the rats were fasted from food except water for 16 hours (from 4 p.m. of the 14th test day to 8 a.m. of the 15th test day), and under anesthesia with pentbarbital sodium (tradename: Nembutal), blood was taken from each rat through the descending abdominal arota. Then, TC, HDL-C, TG, PL, and LPO in the serum were measured in the manner that will be described below.
A TC kit-K (supplied by Nippon Shoji Kaisha, Ltd.) was used. The principle of this determination is as follows: The ester of cholesterol in the serum is hydrolyzed with cholesterol-ester hydrolase into free cholesterol and fatty acids. All the free cholesterol is oxidized with cholesterol oxydase to form Δ^4 -cholestenone and hydrogen peroxide. Phenol and 4-aminoantipyrin are oxidatively condensed together by the formed hydrogen peroxide and peroxydase. The produced red quinone coloring matter is measured by colorimetry for absorbance at 500 nm using a spectrophotometer, thereby determining the TC:
The color-developing liquid (3.0 ml) is well mixed with the sample serum (0.02 ml). The mixture once heated at 37° C. for 15 minutes, is measured for absorbance at 500 nm with a spectrophotometer. The found absorbance is denoted by EA. On the other hand, the color-developing liquid (3.0 ml) is well mixed with the standard solution. The mixture is treated and measured for absorbance at 500 nm in the same manner as the above. This found absorbance is denoted by ES. Both EA and ES are determined with reference to the value of the blank test conducted using the color-developing liquid (3.0 ml) alone. [formula]
An HDL-C kit-N (supplied by Nippon Shoji Kaisha, Ltd.) was used. […] (VLDL) and lo density lipoprotein (LDL) in the serum is precipitated by the action of heparin. The precipitate is separated by centrifugation. High density lipoprotein (HDL) is dissolved in the separated supernatant. Esters of cholesterol in this fraction is hydrolyzed with cholesterol-ester hydrolase into free cholesterol and fatty acids. All the free cholesterol is oxidized with cholesterol oxydase to form Δ^4 -cholestenone and hydrogen peroxide. Phenol and 4-aminoantipyrine are oxidatively condensed together by the formed hydrogen peroxide and peroxydase. The produced red quinone coloring matter is measured by colorimetry for absorbance at 500 nm using a spectrophotometer, thereby determining the HDL-C.
A PL kit-K (supplied by Nippon Shoji Kaisha, Ltd.) was used for the determination. Lecithin, sphingomyelin, and lysolecithin are decomposed by phospholipase D into choline and phosphatidic acid, N-acylsphingosyl phosphate, or lysophosphatidic acid, respectively. The resulting choline is quantitatively decomposed by choline oxydase into hydrogen peroxide and betaine. With this hydrogen peroxide, and aid of peroxydase, phenol and 4-aminoantipyrin are condensed into red quinone pigment, then the absorbance at 500 nm of which is measured with a spectrophotometer, thereby determining the PL.
Serum TG level was determined by means of a triglyceride test kit (supplied by Wako Pure Chemical Industries, Ltd.) in which acetylacetone is used for a reagent, in the following manner: Serum proteins are precipitated, when isopropyl alcohol and the sample serum are mixed. […]

SMILES | AI [(TC - HDL-C)/(HDL-C)] | HDL-C in serum | LPO in serum | PL in serum | TC in serum | TG in serum | AI % of diff. | AI Diff. | HDL-C % of diff. | HDL-C Diff. | LPO % of diff. | LPO Diff. | PL % of diff. | PL Diff. | TC % of diff. | TC Diff. | TG % of diff. | TG Diff.
CC(C)=CCCC(C)C1CCC2(C)C3CCC4C(C)(C)C(OC(=O)c5cccnc5)CCC45CC35CCC12C (stereo not drawn) [Example 24, cycloartenyl nicotinate] | 0.748 | 94.0 mg/dL | 1.93 nmol/mL | 133.8 mg/dL | 164.3 mg/dL | 34.7 mg/dL | -38.8% | -0.474 | +8.7% | +7.5 mg/dl | -13.7% | -0.31 nmol/mL | -22.5% | -38.8 mg/dL | -14.5% | -27.9 mg/dL | 4.3% | -1.6 mg/dL
CC(C)=C(C)CCC(C)C1CCC2(C)C3CCC4C(C)(C)C(OC(=O)c5ccc(O)cc5)CCC45CC35CCC12C (stereo not drawn) [Example 58, cyclobranyl-p-hydroxybenzoate] | 1.318 | 62.0 mg/dL | 1.82 nmol/mL | 121.3 mg/dL | 143.7 mg/dL | 26.8 mg/dL | -25.4% | -0.449 | +3.0% | +1.8 mg/dl | -28.1% | -0.71 nmol/mL | -11.3% | -15.4 mg/dL | -13.7% | -22.9 mg/dL | -1.5% | -0.4 mg/dL
CC(C)=CCCC(C)C1CCC2(C)C3CCC4C(C)(C)C(OC(=O)c5ccc(N)cc5)CCC45CC35CCC12C (stereo not drawn) [Example 19, cycloartenyl-p-aminobenzoate] | 0.699 | 91.9 mg/dL | 1.63 nmol/mL | 153.6 mg/dL | 156.1 mg/dL | 31.6 mg/dL | -42.8% | -0.523 | +6.2% | +5.4 mg/dl | -27.2% | -0.61 nmol/mL | -11.0% | -19.0 mg/dL | -18.8% | -36.1 mg/dL | -12.9% | -4.7 mg/dL
CCCCC/C=C\C/C=C\CCCCCCCC(=O)OC1CCC23CC24CCC2(C)C(C(C)CCC=C(C)C)CCC2(C)C4CCC3C1(C)C (stereo not drawn) [Example 25, cycloartenyl linolate] | 0.705 | 92.3 mg/dL | 1.67 nmol/mL | 144.6 mg/dL | 157.4 mg/dL | 34.0 mg/dL | -42.3% | -0.517 | +6.7% | +5.8 mg/dl | -25.6% | -0.57 nmol/mL | -16.2% | -28.0 mg/dL | -18.1% | -34.8 mg/dL | -6.2% | -2.3 mg/dL
CC(C)=C(C)CCC(C)C1CCC2(C)C3CCC4C(C)(C)C(OC(=O)C=Cc5ccc(N)cc5)CCC45CC35CCC12C (stereo not drawn) [Example 104, cyclobranyl ester of p-aminocinnamic acid] | 3.205 | 48.7 mg/dL | 2.01 nmol/mL | 143.7 mg/dL | 204.8 mg/dL | 27.4 mg/dL | -59.1% | -4.635 | +32.0% | +11.8 mg/dl | -28.2% | -0.79 nmol/mL | -13.2% | -21.9 mg/dL | -37.2% | -121.4 mg/dL | -19.4% | -6.6 mg/dL
CC(C)=C(C)CCC(C)C1CCC2(C)C3CCC4C(C)(C)C(OC(=O)c5cccnc5)CCC45CC35CCC12C (stereo not drawn) [Example 50, cyclobranylnicotinate] | 0.697 | 95.7 mg/dL | 1.87 nmol/mL | 138.8 mg/dL | 162.4 mg/dL | 34.7 mg/dL | -43.0% | -0.525 | 10.6% | +9.2 mg/dl | -16.7% | -0.37 nmol/mL | -19.6% | -33.8 mg/dL | -15.5% | -29.8 mg/dL | -4.3% | -1.6 mg/dL
C=C(CCC(C)C1CCC2(C)C3CCC4C(C)(C)C(OC(=O)C=Cc5ccc(OC(C)=O)c(OCC)c5)CCC45CC35CCC12C)C(C)C (stereo not drawn) [Example 72, 24-methylenecycloartanyl-4-acetoxy-3-ethoxycinnamate] | 1.091 | 89.2 mg/dL | 2.07 nmol/mL | 160.3 mg/dL | 186.5 mg/dL | 41.8 mg/dL | -35.2% | -0.593 | +10.2% | +8.3 mg/dl | -10.4% | -0.24 nmol/mL | -10.8% | -19.4 mg/dL | -14.1% | -30.6 mg/dL | -2.4% | -1.0 mg/dL
COc1cc(C=CC(=O)OC2CCC34CC35CCC3(C)C(C(C)CCC=C(C)C)CCC3(C)C5CCC4C2(C)C)ccc1O (stereo not drawn) [Example 100-1, cycloartenyl-4-hydroxy-3-methoxycinnamate] | 1.204 | 79.1 mg/dL | 1.51 nmol/mL | 150.0 mg/dL | 174.3 mg/dL | 28.3 mg/dL | -20.6% | -0.313 | -3.0% | -2.4 mg/dL | -33.5% | -0.76 nmol/mL | -13.3% | -23.1 mg/dL | -15.0% | -30.8 mg/dL | -17.6% | -6.0 mg/dL
CC(C)=C(C)CCC(C)C1CCC2(C)C3CCC4C(C)(C)C(OC(=O)c5ccccc5O)CCC45CC35CCC12C (stereo not drawn) [Example 41, cyclobranyl-o-hydroxybenzoate] | 0.890 | 92.9 mg/dL | 2.01 nmol/mL | 156.7 mg/dL | 175.6 mg/dL | 41.5 mg/dL | -47.1% | -0.794 | +14.8% | +12.0 mg/dl | -13.0% | -0.30 nmol/mL | -12.8% | -23.0 mg/dL | 19.1% | -41.5 mg/dL | -3.0% | -1.3 mg/dL
